# In publication PMC3858566, “Identification of a novel peptide that blocks basic fibroblast growth factor-mediated cell proliferation” (Oncotarget, 2013):
# Where no end group is shown, it is not given here.
# T1: bFGF receptors (FGFR1c/FGFR2c on Balb/c 3T3 cells) (Mus musculus, UniProt P16092)
# T1 chain: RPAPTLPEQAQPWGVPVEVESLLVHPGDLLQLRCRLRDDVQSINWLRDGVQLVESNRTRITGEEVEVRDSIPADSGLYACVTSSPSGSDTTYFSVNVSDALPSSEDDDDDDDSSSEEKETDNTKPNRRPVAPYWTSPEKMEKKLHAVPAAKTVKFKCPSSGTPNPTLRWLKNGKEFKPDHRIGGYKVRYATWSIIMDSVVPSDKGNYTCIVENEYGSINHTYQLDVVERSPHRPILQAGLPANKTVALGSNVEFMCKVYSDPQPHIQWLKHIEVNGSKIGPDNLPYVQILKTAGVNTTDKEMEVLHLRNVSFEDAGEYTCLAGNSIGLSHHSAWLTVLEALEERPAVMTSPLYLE
# What was measured:
# [1] = test system: B16-F10 murine melanoma cells; details: 48 h, 10 nM
# Experimental: Cells were seeded in 96-well plates (5 × 10^3 cells/well) in DMEM containing 10% FBS. After incubation at 37°C for 24 h, the culture medium was replaced by DMEM containing 0.4% FBS to starve the cells for 24 h. The medium was then replaced by DMEM containing 30 ng/ml bFGF, or 30 ng/mL bFGF plus peptide at various concentrations. After culturing for 48 h, the number of viable cells was determined by the methylthiazoletetrazolium (MTT) method as previously described [5].
# [2] = test system: bFGF receptors on Balb/c 3T3 cells; details: range of values previously published; cited from earlier work
# [3] = test system: B16-F10 cells; assay: Flow cytometric analysis of cell cycle; format: cell-based, murine; details: 48 h
# Experimental: Cells were starved for 24 h, and treated with 30 ng/ml bFGF or 30 ng/mL bFGF plus serially-diluted peptides for 48 h. After fixing in 70% ice-cold ethanol for 30 min at 4 °C and washing with PBS for 3 times, cells were stained with propidium iodide (PI) in the dark at room temperature for 30 min. The ModFit DNA analysis program was applied to analyze the percentages of cells at various phases of the cell cycle.
# [4] = test system: bFGF receptors on Balb/c 3T3 cells; assay: Receptor binding assay (125I-bFGF competition, Scatchard analysis)
# Experimental: The recombinant bFGF was iodinated by the modified chloramine-T method. Briefly, bFGF (5 μg/50 μ1 in 0.5 M phosphate buffer, pH 7.4) was incubated with chloramine-T (20 μg/10 µl of phosphate buffer) and ^125I-labeled sodium (1.12 mCi/10 μ1) at room temperature for 55 sec. The reaction was immediately terminated by the addition of sodium metabisulflte (250 μg/200 μl) and 1% potassium iodide (100 μl), and the mixture was applied to a Sephadex G-50 column (1×20 cm) preequilibrated in 50 mM phosphate buffer containing 0.1% BSA to separate ^125I-labeled bFGF from free ^125I.
# Confluent Balb/c 3T3 cells (0.5×10^6/well) were incubated with binding buffer (DMEM, 20mM HEPES, pH7.4) containing ^125I-bFGF (50000 cpm) and different concentrations of unlabeled ligand (bFGF or the synthetic peptide) for 2.5 h at 4°C. For nonspecific binding, cells were incubated with ^125I-bFGF (50000 cpm) and an excess of unlabeled bFGF (200 nM). The cells were washed with (3 × 1 ml) cold PBS (50 mM, PH7.4), and lysed with 1% Triton X-100 (500 μl). The radioactivity of the extracts was measured in a γ counter. Specific binding was determined as the difference between total and nonspecific binding, and data were analyzed by Scatchard analysis.
# [5] = molecular target: T1, bFGF receptors (FGFR1c/FGFR2c on Balb/c …); assay: 125I-bFGF competition binding on cells
# [6] = 30 ng/ml bFGF alone, mean ± SD of 3 independent experiments
molecule,measurement,setting,value
LSPPRYPGGGS-NH2 [P9 peptides],inhibition of bFGF-stimulated proliferation,[1],~90%
basic fibroblast growth factor [bFGF],"receptor sites per cell of high affinity bFGF receptors, previously published",[2],0.2-10 ×10^4 sites/cell
same,G0/G1,[3]; [6],26.45 ± 1.01%
same,G2/M,[3]; [6],7.46 ± 0.56%
same,S,"[3]; 30 ng/ml bFGF alone, mean ± SD of 3 independent experiments, * P<0.01 vs control group",66.09 ± 1.22%
same,effect of bFGF on cell cycle,"[3]; bFGF alone, 30 ng/ml","significantly increased the percentage of S phase cells, and decreased the ratio of G0/G1 phase cells"
^125I-bFGF: recombinant bFGF iodinated by the modified chloramine-T method,"receptor population, 125I-bFGF binding, without P9",[4],"approximately 9,600 sites/cell"
LSPPRYPGGGS-NH2 [P9 peptide],IC50,[5],~2.5 nM
